Measurements reported in US8378098B2, “Imidazol[1,2-α]quinoxalines and derivatives for the treatment of cancers” (Universite de Montpellier I, priority 2007, dated 2013).
“Also recorded” adds a separate entry of the source. Read-outs that look alike come from different tables or passages of the source.

How the values were obtained:
RPMI7591 (melanoma) = assay: in vitro cytotoxicity on RPMI7591 melanoma line; assay type: cell-based; settings: Homo sapiens; Table 2; unit inferred; read-out: IC50 RPMI7591
Excerpt: (§1) Several human carcinoma cell lines were used: • Lines A375, M4Be, RPMI7591 from human melanoma. • Line LS174T from colon carcinoma. • Line A 2780 from ovarian carcinoma. • The Raji line from B lymphoma. • Line MCF7 from breast carcinoma.

[1] = determination of the lethal dose 50 (LD50) in the mouse; assay type: in vivo
[2] = lethal doses 50% reported in the pharmacokinetic study; assay type: in vivo; settings: species and route not stated in the sentence (rat study)
Method: (§2) Methods of assaying compounds EAPB0203, EAPB0503 and EAPB0603 by high performance liquid chromatography and detection by mass spectrometry (LC/ESI-MS) were developed and validated in human and rat plasmas. Pre-treatment of the samples consists of a liquid solid extraction preceded by precipitation of plasma proteins in acid medium. The chromatographic column used is C8 Zorbax eclipse XDB and the mobile phase (gradient) a mixture of acetonitrile and formate buffer (pH 3) (flow rate, 0.8 ml/min). The […] from 92 to 113%. The extraction coefficients are higher than 72%. The quantification limit is 5 μg/l for all analytes. Stability tests of the compounds in the matrices were also carried out. These methods were used to determine the pharmacokinetic parameters of compounds EAPB0203, EAPB0503 and EAPB0603 in the rat. The lethal doses 50% of compounds EAPB0203 and EAPB0503 are respectively 14.8 and 7.6 mg/kg.

treated cell lines = assay: mitochondrial route of apoptosis (Rhodamine 123 transmembrane potential, cytochrome C localization); assay type: cell-based, human
Excerpt: Mitochondria play a central role in apoptotic mechanisms. The first detectable cellular disturbance during the apoptotic process is a reduction in mitochondrial transmembrane potential.
Indeed, activation of the intrinsic mitochondrial route in the cells studied is shown.

A375 melanoma = assay: in vitro cytotoxicity (antiproliferative activity) on A375 melanoma line; assay type: cell-based, human; settings: for IC50: Homo sapiens, A-375
Excerpt: Antiproliferative activity was first measured on a cancer cell line of human origin, A375 melanoma.
Imiquimod and fotemustine (Muphoran®) are used as controls in this study.
as §1
IC50 (concentration of the product tested which inhibits 50% of the maximum cell proliferation observed in the control wells) is determined graphically from the curve of the percentage of cell proliferation as a function of concentration of the product tested.

Raji (B lymphoma) = assay: in vitro cytotoxicity on Raji B lymphoma line; assay type: cell-based, human; settings: Homo sapiens, Raji; Table 2; unit inferred
Excerpt: as §1

in vivo = settings: rat, iv, 5 mg/kg
Method: as §2

[3] = tested on: leukaemic cells derived from two patients with ATL; assay: cell proliferation of leukaemic cells derived from patients with ATL; assay type: cell-based, human
[4] = tested on: CEM and HuT-102 cells; HuT-102 and MT2 cells; assay: protein expression by western blot (caspases, Bcl-2 family, cell cycle regulators); assay type: cell-based, human
Excerpt: Proteinic cell extracts were obtained after various treatments and evaluation of the expression of certain proteins was studied by western blot.
Activation of the mitochondrial route is controlled by members of the Bcl-2 family. […] In the cell lines infected or not infected by HTLV-I, the effect of EAPB0203 on regulators of the cell cycle is studied.

[5] = tested on: HTLV-I-positive human T lines (HuT-102 and C8166, and MT2); assay: cell growth of HTLV-I-positive human T lines (CellTiter 96, trypan blue exclusion); assay type: cell-based; settings: 1 to 10 μM, 24-96 h
Method: FIG. 2: HTLV-I-positive and HTLV-I-negative malignant human cell lines are sensitive to EAPB0203, but activated or inactivated normal T lymphocytes are resistant. Effects of EAPB0203 on the growth of human T lines not infected by HTLV-I (CEM, Jurkatt, Molt-4 and HuT-78), HTLV-I-positive human T lines (HuT-102 and C8166, and MT2), and normal lymphocytes at rest or activated by PHA. The activated normal PBMC were supplemented with 2% PHA. EAPB0203 was added at the concentrations indicated in mole/l for 24-96 h. Cell growth is analyzed with the “CellTiter 96®” nonradioactive cell growth kit. The results are expressed as a percentage of the control (0.1% DMSO) and represent the mean of the results obtained in three independent experiments.
The in vitro activity of EAPB0203 on adult T-cell leukemia (ATL) transformed by retrovirus HTLV-I (HuT-102, MT2 . . . ) and malignant HTLV-I-negative T-cells (CEM, Jurkatt . . . ) was evaluated. Initially, the effect of EAPB0203 on cell growth of these lines was evaluated by two techniques, the nonradioactive “CellTiter 96®” cell growth kit and the trypan blue exclusion method.

[6] = A375, comparison of IC50 values

Structure (SMILES): CNc1nc2ccccc2n2c(CCc3ccccc3)cnc12 [EAPB0203, N-methyl-1-(2-phenylethyl)imidazo[1,2-a]quinoxalin-4-amine]
- IC50 (RPMI7591 (melanoma)): 4.23 ± 0.48 µM
- apparent toxicity after 48 h at the highest doses [1]: did not display any apparent toxicity
- LD50 at 48 h ([1]; in vivo, doses 30, 300 and 450 mg/kg, 48 h): > 450 mg/kg
- lethal doses 50% [2]: 14.8 mg/kg
- mitochondrial transmembrane potential (treated cell lines; Rhodamine 123, flow cytometry): drop in the mitochondrial transmembrane potential
- sub-cellular localization of cytochrome C (treated cell lines; treated cell lines): presence of cytochrome C in the cytoplasm
- activity times higher than that of fotemustine (A375 melanoma; [6]): 110 times
- activity times higher than that of imiquimod (A375 melanoma; [6]): 50 times
- IC50 (A375 melanoma; A375 melanoma line, Table 1, IC50 and standard deviation, read-out: IC50): 1.57 µM
- IC50 (A375 melanoma; Table 2, unit inferred, read-out: IC50 A375): 1.57 ± 0.56 µM
- IC50 (Raji (B lymphoma)): 6.23 ± 0.06 µM
- Vd (in vivo): 10.6 L/kg
- area under the curve of plasma concentrations (in vivo): 870 ng·h/mL
- clearance (in vivo): 48.3 mL/min/kg
- half-life (in vivo): 2.6 h
- cell proliferation of leukaemic cells from ATL patients [3]: induced inhibition of cell proliferation
- caspases (cleavage of PARP, procaspase-3, -8, -9) ([4]; CEM and HuT-102 cells, western blot): activation of caspases
- expression of proteins p21 and p53 ([4]; HuT-102 and MT2 cells (HTLV-I-positive)): significant increase
- apoptosis under co-treatment by caspase inhibitor zVAD ([4]; co-treatment with zVAD): partial protection
- expression of IAP-1 proteins and bcl-xL ([4]; western blot): significant reduction
- growth of ATL cells (HTLV-I-positive) [5]: sensitive; also recorded: progressive, dose-dependent inhibition
